Here are results for 22 compounds from US10208074B2, “Pyrazole compounds and method for making and using the compounds” (Rigel Pharmaceuticals, Inc., priority 2015, dated 2019).

Test [1] deals with IL-23 (p19/p40). Nature of the test: IL23-p19 ELISA, Dendritic, LPS (compound screening using DC cells). The conditions noted are these: PBMC-derived DC cells, IFNγ primed, LPS 1 μg/ml, 18 hours, 10 pt, read-out: IL23-p19 ELISA, Dendritic, LPS, 10 pt, EC50. Type of test: cell-based, Human. The method in brief:
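IL-23 in supernatants quantified by sandwich ELISA (anti-p19 capture, biotinylated anti-p40 detection, chemiluminescent readout) after 18 h LPS (1 μg/ml) stimulation. Cells were monocyte-derived DCs (GM-CSF/IL-4, 7 d), IFNγ-primed 24 h and given compound 1 h before LPS; viability by CellTiter Glo.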
A general note: ELISA stands for enzyme-linked immunosorbent assay.

In test [2] the test system is IL-23p19. Kind of test: LPS induced IL23p19 in THP-1 cells (with IFNγ primed) assay. It counts as cell-based, Human. Particulars: THP-1 cells, IFNγ primed, LPS 1 ug/mL, 18 hours, 10 pt, read-out: IL23-p19 ELISA, THP1-IFNy, LPS, 10 pt EC50. The method in brief:
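Readout is secreted IL-23p19, quantified by chemiluminescent sandwich ELISA after 18 h LPS (1 ug/mL) stimulation of THP-1 cells that had been IFNγ-primed (50 ng/mL, ~18 h) and given compound 1 h beforehand at 37 °C. EC50 derived by curve fit; cytotoxicity tracked with Cell Titer Glo.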

What is called EC50 is the concentration needed to bring the measured effect to its halfway point.

Structures can show the parent of a compound that is named as a salt. Where two headings read alike, the source gives them in different places.

Consider `Cn1cc(NC(=O)c2ccc(-c3cnn(COP(=O)(O)O)c3)o2)c(-c2ccccn2)n1` [Compound I-82, Sodium [4-{5-((1-Methyl-3-(pyridine-2-yl)-1H-pyrazol-4-yl)carbamoyl)furan-2-yl}-1H-pyrazol-1-yl]methyl phosphate], for which the EC50 in test [1] (phosphate) worked out at 780 nM; in test [2] (phosphate) it was 205 nM.
Take `CCCNC(=O)N1CC(n2cc(NC(=O)c3ccc(-c4cn[nH]c4)o3)c(-c3ccccn3)n2)C1` [Compound I-86, 3-[4-{5-(1H-Pyrazol-4-yl)furan-2-carboxamido}-3-(pyridine-2-yl)-1H-pyrazol-1-yl]-N-propylazetidine-1-carboxamide, free base]: the EC50 worked out at 63.7 nM in test [1] (Homo sapiens, 18 h) and 61.4 nM in test [2] (Homo sapiens, THP-1, 18 h).
On the same counts, the results for `CCOCCn1cc(NC(=O)c2ccc(-c3cnn(C)c3)o2)c(-c2ccccn2)n1` [Compound I-45, N-(1-(2-ethoxyethyl)-3-(pyridin-2-yl)-1H-pyrazol-4-yl)-5-(1-methyl-1H-pyrazol-4-yl)furan-2-carboxamide formate] are 5450 nM and 1080 nM.
In the case of `CCO[C@H]1C[C@@H](n2cc(NC(=O)c3ccc(-c4cn[nH]c4)o3)c(-c3ncccc3F)n2)C1` [Compound I-142, N-(1-((1s,3s)-3-ethoxycyclobutyl)-3-(3-fluoropyridin-2-yl)-1H-pyrazol-4-yl)-5-(1H-pyrazol-4-yl)furan-2-carboxamide formate], the EC50 in test [1] (Homo sapiens, 18 h) worked out at 26.2 nM; in test [2] (Homo sapiens, THP-1, 18 h) it was 68.9 nM.
Take `CCO[C@H]1C[C@@H](n2cc(NC(=O)c3ccc(-c4cn[nH]c4)o3)c(-c3cc(F)ccn3)n2)C1` [Compound I-148, N-(1-((1s,3s)-3-ethoxycyclobutyl)-3-(4-fluoropyridin-2-yl)-1H-pyrazol-4-yl)-5-(1H-pyrazol-4-yl)furan-2-carboxamide formate]: the EC50 was 110 nM in test [1] (Homo sapiens, 18 h) and 173 nM in test [2] (Homo sapiens, THP-1, 18 h).
In the case of `COCCOCCn1cc(NC(=O)c2ccc(-c3cn[nH]c3)o2)c(-c2ccccn2)n1` [Compound I-17, N-(1-(2-(2-methoxyethoxy)ethyl)-3-(pyridin-2-yl)-1H-pyrazol-4-yl)-5-(1H-pyrazol-4-yl)furan-2-carboxamide hydrochloride salt], the results for the EC50 in test [1] (hydrochloride salt) and in test [2] (hydrochloride salt) were 424 nM and 285 nM, respectively.
In the case of `CCO[C@H]1C[C@@H](n2cc(NC(=O)c3csc(-c4cnn(COP(=O)(O)O)c4)n3)c(-c3ccccn3)n2)C1` [II-84, (4-(4-((1-((1,3-cis)-3-ethoxycyclobutyl)-3-(pyridin-2-yl)-1H-pyrazol-4-yl)carbamoyl)thiazol-2-yl)-1H-pyrazol-1-yl)methyl phosphate Tris salt], the EC50 in test [1] was 304 nM; in test [2], 85 nM.
As to `COC1CC(n2cc(NC(=O)c3ccc(-c4cn[nH]c4)o3)c(-c3ccccn3)n2)C1` (stereo not drawn) [Compound I-72, N-{1-(3-Methoxycyclobutyl)-3-(pyridine-2-yl)-1H-pyrazol-4-yl}-5-(1H-pyrazol-4-yl)furan-2-carboxamide, Cis isomer], the EC50 in test [1] was 5 nM; in test [2] it was 56.8 nM.
Take `O=C(Nc1cn([C@H]2CC[C@@H](O)CC2)nc1-c1ccccn1)c1ccc(-c2cn[nH]c2)o1` [Compound I-124, N-(1-((1s,4s)-4-hydroxycyclohexyl)-3-(pyridin-2-yl)-1H-pyrazol-4-yl)-5-(1H-pyrazol-4-yl)furan-2-carboxamide formate]: the EC50 in test [1] (Homo sapiens, 18 h) is 101 nM; in test [2] (Homo sapiens, THP-1, 18 h) it was 53.4 nM.
Regarding `COCCn1cc(NC(=O)c2ccc(-c3cnn(C(=O)[C@@H](NC(=O)OC(C)(C)C)C(C)C)c3)o2)c(-c2ccccn2)n1` [Compound I-20, tert-butyl (S)-(1-(4-(5-((1-(2-methoxyethyl)-3-(pyridin-2-yl)-1H-pyrazol-4-yl)carbamoyl)furan-2-yl)-1H-pyrazol-1-yl)-3-methyl-1-oxobutan-2-yl)carbamate], the EC50 in test [1] (Homo sapiens, 18 h) is 194 nM; in test [2] (Homo sapiens, THP-1, 18 h), 167 nM.
Regarding `O=C(Nc1cn(C2C=C(F)C2)nc1-c1ccccn1)c1csc(-c2cn[nH]c2)n1` (centres unmarked) [II-133, N-(1-(3-fluorocyclobut-2-en-1-yl)-3-(pyridin-2-yl)-1H-pyrazol-4-yl)-2-(1H-pyrazol-4-yl)thiazole-4-carboxamide formate], the EC50 worked out at 1520 nM in test [1] (formate) and 313 nM in test [2] (formate).
For the compound `CCO[C@H]1CC[C@H](n2cc(NC(=O)c3ccc(-c4cn[nH]c4)o3)c(-c3ccccn3)n2)CC1` [Compound I-130, N-(1-((1r,4r)-4-ethoxycyclohexyl)-3-(pyridin-2-yl)-1H-pyrazol-4-yl)-5-(1H-pyrazol-4-yl)furan-2-carboxamide formate], the EC50 worked out at 23 nM in test [1] (Homo sapiens, 18 h) and 48.3 nM in test [2] (Homo sapiens, THP-1, 18 h).
With `COCCn1cc(NC(=O)c2ccc(-c3cnn(C(=O)OC4(C)CC4)c3)o2)c(-c2ccccn2)n1` [Compound I-21, 1-methylcyclopropyl 4-(5-((1-(2-methoxyethyl)-3-(pyridin-2-yl)-1H-pyrazol-4-yl)carbamoyl)furan-2-yl)-1H-pyrazole-1-carboxylate], the EC50 in test [1] (Homo sapiens, 18 h) stood at 458 nM; in test [2] (Homo sapiens, THP-1, 18 h), 201 nM.
Take `CCOCCn1cc(NC(=O)c2ccc(-c3cnn(COP(=O)(O)O)c3)o2)c(-c2ccccn2)n1` [Compound I-55, sodium (4-(5-((1-(2-ethoxyethyl)-3-(pyridin-2-yl)-1H-pyrazol-4-yl)carbamoyl)furan-2-yl)-1H-pyrazol-1-yl)methyl phosphate]: the EC50 turned out to be 801 nM in test [1] (phosphate) and 1200 nM in test [2] (phosphate).
On to `CCO[C@H]1C[C@@H](n2cc(NC(=O)c3csc(-c4cn[nH]c4)n3)c(-c3nc(F)ccc3F)n2)C1` [II-174, N-(3-(3,6-difluoropyridin-2-yl)-1-((cis)-3-ethoxycyclobutyl)-1H-pyrazol-4-yl)-2-(1H-pyrazol-4-yl)thiazole-4-carboxamide], for which the EC50 in test [1] (Homo sapiens, 18 h) worked out at 70.8 nM; in test [2] (Homo sapiens, THP-1, 18 h), 82.1 nM.
For the compound `Cn1cc(NC(=O)c2csc(-c3cn[nH]c3)n2)c(C(F)(F)F)n1` [II-63, N-(1-methyl-3-(trifluoromethyl)-1H-pyrazol-4-yl)-2-(1H-pyrazol-4-yl)thiazole-4-carboxamide trifluoroacetate salt], the EC50 in test [1] (Homo sapiens, 18 h) is 5450 nM; in test [2] (Homo sapiens, THP-1, 18 h), 20800 nM.
For `COCCn1cc(NC(=O)c2ccc(-c3cn[nH]c3)o2)c(-c2ccccn2)n1` [Compound I-5, N-(1-(2-methoxyethyl)-3-(pyridin-2-yl)-1H-pyrazol-4-yl)-5-(1H-pyrazol-4-yl)furan-2-carboxamide], the concentration giving a half-maximal response (EC50) in test [1] (Homo sapiens, 18 h) was 136 nM; in test [2] (Homo sapiens, THP-1, 18 h), 82.6 nM.
Regarding `CCOCCn1cc(NC(=O)c2ccc(-c3cnn(COP(=O)(O)O)c3)o2)c(-c2ccccn2)n1` [Compound I-54, (4-(5-((1-(2-ethoxyethyl)-3-(pyridin-2-yl)-1H-pyrazol-4-yl)carbamoyl)furan-2-yl)-1H-pyrazol-1-yl)methyl dihydrogen phosphate], the EC50 in test [1] (Homo sapiens, 18 h) was found to be 1580 nM; in test [2] (Homo sapiens, THP-1, 18 h), 617 nM.
In the case of `CCOCCn1cc(NC(=O)c2ccc(-c3cn[nH]c3)o2)c(-c2nccs2)n1` [Compound I-118, N-(1-(2-ethoxyethyl)-3-(thiazol-2-yl)-1H-pyrazol-4-yl)-5-(1H-pyrazol-4-yl)furan-2-carboxamide formate], the figures for the EC50 in test [1] (formate) and in test [2] (formate) were 161 nM and 68.1 nM, respectively.
As for `COCCOCCn1cc(NC(=O)c2ccc(-c3cn[nH]c3)o2)c(-c2ccccn2)n1` [Compound I-16, N-(1-(2-(2-methoxyethoxy)ethyl)-3-(pyridin-2-yl)-1H-pyrazol-4-yl)-5-(1H-pyrazol-4-yl)furan-2-carboxamide], the EC50 in test [1] (Homo sapiens, 18 h) worked out at 403 nM; in test [2], 125 nM.
As to `O=C(Nc1cn([C@H]2CC[C@H](NCC(F)F)CC2)nc1-c1ncccn1)c1csc(-c2cn[nH]c2)n1` [II-179, N-(1-((1r,4r)-4-((2,2-difluoroethyl)amino)cyclohexyl)-3-(pyrimidin-2-yl)-1H-pyrazol-4-yl)-2-(1H-pyrazol-4-yl)thiazole-4-carboxamide], the EC50 in test [1] (Homo sapiens, 18 h) came to 74.8 nM; in test [2] (Homo sapiens, THP-1, 18 h) it was 12.5 nM.
With `CCOCCn1cc(NC(=O)c2ccc(-c3cn[nH]c3)o2)c(-c2ccccn2)n1` [Compound I-38, N-(1-(2-ethoxyethyl)-3-(pyridin-2-yl)-1H-pyrazol-4-yl)-5-(1H-pyrazol-4-yl)furan-2-carboxamide], the figures for the EC50 in test [1] and in test [2] were 58.2 nM and 172 nM, respectively.
